Laboratory results: publication PMC5078989, “Targeted inhibition of the COP9 signalosome for treatment of cancer” (Nature Communications, 2016)

System: panel of cancer cell lines
Test: Cell viability (CellTiter-Glo) dose-response across cancer cell line panel;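 for EC50: after 72 h compound incubation with CellTiter-Glo ATP readout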
Type: cell-based, human
Conditions: for EC50: Homo sapiens
From the text: Next, we explored the effect of CSN5 inhibition on the viability of cancer cells. To obtain a comprehensive picture, we generated dose–response curves with a CSN5 inhibitor across more than 500 cancer cell lines in a previously described standardized setting[47] (Supplementary Data 1).
A standardized CellTiter-Glo Assay (Promega #G7570) based on the quantification of ATP was applied according to the manufacturer's protocol to measure the amount of viable cells in culture. In brief, cells were seeded into 384-well plates at optimal density for each cell line. After 4 h, compounds were added at different concentrations in growth medium and incubated for another 72 h in a humidifying chamber at 37 °C and 5% CO2. […] EC50 values were calculated from the plot of percentage of inhibition versus inhibitor concentration using the nonlinear regression analysis software Origin 7.5SR6 (OriginLab Corp.).

`COCc1ccccc1NCc1ccc([C@H]2[C@@H](O)CCCc3cncn32)c(-c2ccccc2Cl)c1` [CSN5i-2, (5S,6S)-5-(2′-chloro-5-(((2-(methoxymethyl)phenyl)amino)methyl)-[1,1′-biphenyl]-2-yl)-6,7,8,9-tetrahydro-5H-imidazo[1,5-a]azepin-6-ol] gave an EC50 (SNU-449, SNU-449) of 2.13 µM, an EC50 (SNU-475, SNU-475) of 2.61 µM and an EC50 (SNU-685) of 2.09 µM. The EC50 (SNU-738) was 14.2 µM, the EC50 (SNU-761) was 0.281 µM and the EC50 (SNU-1040) was 26.8 µM. The EC50 (SNU-1079) was 0.661 µM, the EC50 (SNU-C1, SNU-C1) was 11.7 µM and the EC50 (SNU-C2A) was 5.18 µM. For the same compound, the EC50 (SNU-C4, SNU-C4) was 2.28 µM, the EC50 (SNU-C5) was 0.513 µM and the EC50 (SR-786, SR-786) was 0.515 µM. It also gave an EC50 (SU-DHL10, SU-DHL-10) of 0.649 µM, an EC50 (SU-DHL-4, SU-DHL-4) of 0.703 µM and an EC50 (SU-DHL-5, SU-DHL-5) of 0.161 µM. For the same compound, the EC50 (SU-DHL-6, SU-DHL-6) was 0.261 µM, the EC50 (SU-DHL-8, SU-DHL-8) was 0.467 µM and the EC50 (SU.86.86, SU.86.86) was 27 µM. It also gave an EC50 (SUIT-2, SUIT-2) of 2.04 µM, an EC50 (SUM44PE) of 17 µM and an EC50 (SUM52PE) of 4.06 µM. For the same compound, the EC50 (SUM149PT) was 0.883 µM, the EC50 (SUM185PE) was 11.2 µM and the EC50 (SUM190PT) was 2.95 µM. The EC50 (SUP-T1, SUP-T1) was 0.768 µM, the EC50 (SW48, SW48) was 3.24 µM and the EC50 (SW480, SW480) was 1.84 µM. The EC50 (SW837, SW837) was greater than 30 µM, the EC50 (SW900, SW 900) was 1.45 µM and the EC50 (SW982, SW982) was 1.38 µM. It also gave an EC50 (SW1271, SW 1271) of 0.766 µM, an EC50 (SW1353, SW 1353) of 1.37 µM and an EC50 (SW1573, SW 1573) of 1.07 µM. The EC50 (SW1783, SW 1783) was 0.358 µM, the EC50 (SW-403, SW403) was greater than 30 µM and the EC50 (SW-620, SW620) was 2.98 µM. The EC50 (SYO-1) was 0.472 µM, the EC50 (Sq-1) was 1.27 µM and the EC50 (T3M4, T3M-4) was 2.42 µM. The EC50 (T47D, T-47D) was 1.03 µM, the EC50 (TALL-1, TALL-1) was 0.639 µM and the EC50 (TANOUE) was 0.248 µM. The EC50 (TC-71, TC-71) was 1.99 µM, the EC50 (TCC-PAN2) was 0.817 µM and the EC50 (TE-1, TE-1) was 0.751 µM. The EC50 (TE-6, TE-6) was 1.68 µM, the EC50 (TE-11, TE-11) was 1.03 µM and the EC50 (TE-14) was 3.66 µM. The EC50 (TE-15, TE-15) was 0.0695 µM, the EC50 (TF-1, TF-1) was 2.59 µM and the EC50 (THP-1, THP-1) was 0.636 µM. It also gave an EC50 (TT2609-C02) of 1.77 µM, an EC50 (TYK-nu) of 0.155 µM and an EC50 (U266B1) of 0.485 µM. The EC50 (U-87 MG) was 1.19 µM, the EC50 (U-118-MG, U-118 MG) was 1.29 µM and the EC50 (U-251, U-251 MG) was 1.61 µM. It also gave an EC50 (U-937, U-937) of 0.354 µM, an EC50 (UACC-62, UACC-62) of 3.71 µM and an EC50 (UACC-257, UACC-257) of 0.556 µM. It also gave an EC50 (UCH1, UCH-1) of 0.415 µM, an EC50 (UKE1, UKE1) of 0.16 µM and an EC50 (VM-CUB-1, VM-CUB1) of 6.69 µM. It also gave an EC50 (VMRC-LCD) of 0.961 µM, an EC50 (VMRC-RCW) of 2.19 µM and an EC50 (WM 266-4, WM-266-4) of 1.44 µM. The EC50 (WM983B, WM-983B) was 1.39 µM, the EC50 (WM-88) was 20.1 µM and the EC50 (WM-115, WM-115) was 1.25 µM. It also gave an EC50 (WM-1799, WM1799) of 1.75 µM, an EC50 (WSU-WM) of 0.814 µM and an EC50 (YAPC) of 0.569 µM. For the same compound, the AMAX (Hs 294T) was -53.6994, the AMAX (Hs 695T) was -69.7728 and the AMAX (Hs 936.T) was -84.1429. The AMAX (HuG1-N) was -75.3496, the AMAX (HuH-7) was -82.3154 and the AMAX (IGR-37) was -80.2025. For the same compound, the AMAX (IGROV1) was -66.8455, the AMAX (IPC-298) was -65.2966 and the AMAX (Ishikawa) was -71.6276. The AMAX (JHH-4) was -91.4689, the AMAX (JHOS-2) was -38.1051 and the AMAX (JHUEM-2) was -86.9649. The AMAX (JL-1) was -47.9564, the AMAX (JVM-2) was -85.1393 and the AMAX (KARPAS-422) was -79.6206. The AMAX (KATO III) was -58.0161, the AMAX (KBM-7) was -95.2333 and the AMAX (KE-97) was -97.8925. For the same compound, the AMAX (KMRC-1) was -54.4009, the AMAX (KP4) was -68.6951 and the AMAX (KP-1N) was -56.9313. It also gave an AMAX (KP-3) of -58.802, an AMAX (KU-19-19) of -51.5044 and an AMAX (KYSE-150) of -49.8534. The AMAX (KYSE-180) was -63.0038, the AMAX (Kasumi3) was -93.6402 and the AMAX (LUDLU-1) was -71.9634. It also gave an AMAX (MFE-280) of -66.9982, an AMAX (MG-63) of -59.1323 and an AMAX (MM138) of -89.9344. The AMAX (MM415) was -88.4479, the AMAX (MM426) was -60.9162 and the AMAX (MM485) was -69.291. For the same compound, the AMAX (MM537) was -73.4726, the AMAX (MM576) was -52.394 and the AMAX (MOLM-16) was -89.6899. It also gave an AMAX (MOLT-13) of -95.3007, an AMAX (MeWo) of -53.7976 and an AMAX (NB-1) of -92.7531. For the same compound, the AMAX (NCI-H82) was -95.3022, the AMAX (NCI-H211) was -68.3447 and the AMAX (NCI-H322) was -37.8008. It also gave an AMAX (NCI-H441) of -64.9424, an AMAX (NCI-H647) of -44.0246 and an AMAX (NCI-H650) of -44.5856. The AMAX (NCI-H810) was -67.8352, the AMAX (NCI-H841) was -78.3347 and the AMAX (NCI-H1155) was -84.5649. For the same compound, the AMAX (NCI-H1299) was -58.5091, the AMAX (NCI-H1339) was -66.5268 and the AMAX (NCI-H1373) was -65.8548. For the same compound, the AMAX (NCI-H1568) was -93.8026, the AMAX (NCI-H2087) was -59.3219 and the AMAX (NCI-H2122) was -79.8003. It also gave an AMAX (NCI-H2126) of -18.8926, an AMAX (NCI-H2172) of -75.6398 and an AMAX (NCI-H2452) of -33.7782. It also gave an AMAX (NCI-N87) of -47.3502, an AMAX (ONCO-DG-1) of -61.2577 and an AMAX (OUMS-23) of -82.8646. It also gave an AMAX (OV56) of -76.0147, an AMAX (P3HR-1) of -76.4402 and an AMAX (P12-ICHIKAWA) of -95.4636. It also gave an AMAX (PC-3) of -57.0972, an AMAX (Panc 03.27) of -70.0008 and an AMAX (Panc 10.05) of -84.7778. The AMAX (RT-112) was -42.1113, the AMAX (SEM) was -97.9816 and the AMAX (SK-ES-1) was -89.0847. For the same compound, the AMAX (WM-88) was -55.011, the “maximal loss of viability” value (other, less sensitive cell lines of the panel) was 40–60% and the “Amax (high-concentration effect level)” value (some cell lines of the panel (cytotoxic)) was no more than −80%.
